Assay results as given in patent US20220184240A1, “ORGANIC COMPOUNDS” (INTRA-CELLULAR THERAPIES, INC., priority 2019, published 2022).

How the values were obtained:
[1] = PDE panel inhibitory constant (Ki) determination; format: biochemical; conditions: PDE1D
Protocol: (§1) Inhibitory constant (Ki) values for Compound 1 were determined against a full panel of phosphodiesterase family members. […] In contrast, potency of Compound 1 for PDE1 A, B and C is roughly equivalent.

[2] = biological target: T1, (Homo sapiens, UniProt Q08499); assay: PDE panel inhibitory constant (Ki) determination; format: biochemical; conditions: PDE1D
T1 construct: Ki; other: PDE1D
Protocol: as §1

PDE1 (Bovine Brain) [3] = assay: PDE panel inhibitory constant (Ki) determination; format: biochemical
Protocol: as §1

PDE1 (Bovine Brain) [4] = biological target: T2, PDE1 (Bovine Brain); assay: PDE panel inhibitory constant (Ki) determination; format: biochemical
T2 construct: Ki; other: PDE1 (Bovine Brain)
Protocol: as §1

PDE10A = PDE10A (Homo sapiens, UniProt Q9Y233); assay: PDE panel inhibitory constant (Ki) determination; format: biochemical
Protocol: as §1

PDE11A = PDE11A (Homo sapiens, UniProt Q9HCR9); assay: PDE panel inhibitory constant (Ki) determination; format: biochemical
Protocol: as §1

PDE1A = PDE1A (Homo sapiens, UniProt P54750); assay: PDE panel inhibitory constant (Ki) determination; format: biochemical
Protocol: as §1

PDE1B = PDE1B (Homo sapiens, UniProt Q01064); assay: PDE panel inhibitory constant (Ki) determination; format: biochemical
Protocol: as §1

PDE1C = PDE1C (Homo sapiens, UniProt Q14123); assay: PDE panel inhibitory constant (Ki) determination; format: biochemical
Protocol: as §1

PDE2A = PDE2A (Homo sapiens, UniProt O00408); assay: PDE panel inhibitory constant (Ki) determination; format: biochemical
Protocol: as §1

PDE3B = PDE3B (Homo sapiens, UniProt Q13370); assay: PDE panel inhibitory constant (Ki) determination; format: biochemical
Protocol: as §1

PDE4A = PDE4A (Homo sapiens, UniProt P27815); assay: PDE panel inhibitory constant (Ki) determination; format: biochemical
Protocol: as §1

PDE5 = PDE5 (Homo sapiens, UniProt O76074); assay: PDE panel inhibitory constant (Ki) determination; format: biochemical
Protocol: as §1

PDE6 [5] = assay: PDE panel inhibitory constant (Ki) determination; format: biochemical
Protocol: as §1

PDE6 [6] = biological target: T3, PDE6; assay: PDE panel inhibitory constant (Ki) determination; format: biochemical
T3 construct: Ki; other: PDE6
Protocol: as §1

PDE7B = PDE7B (Homo sapiens, UniProt Q9NP56); assay: PDE panel inhibitory constant (Ki) determination; format: biochemical
Protocol: as §1

PDE8A = PDE8A (Homo sapiens, UniProt O60658); assay: PDE panel inhibitory constant (Ki) determination; format: biochemical
Protocol: as §1

PDE9A = PDE9A (Homo sapiens, UniProt O76083); assay: PDE panel inhibitory constant (Ki) determination; format: biochemical
Protocol: as §1

[7] = tested on: PDE1 enzymes versus all other PDE families; assay: Selectivity over full panel of phosphodiesterase family members; format: biochemical
Protocol: as §1

PDE1 in striatal slices [8] = assay: Striatal slice cGMP levels after K+ depolarization; format: cell-based; conditions: 1 μM compound preincubation, 1-minute high K+ depolarization
Protocol: FIG. 1 illustrates the effect of PDE1 inhibition on striatal cGMP levels. Striatal slices were preincubated with either vehicle or compound, followed by a 1-minute stimulation with high K+ or vehicle. cGMP levels were normalized to baseline levels for comparison. […] PDE1 inhibition by 1 μM ITI-041 or 1 μM ITI-214 in the presence of K+ depolarization (striped bars).
Striatal tissue slice preparations were used to further study regulation of PDE1 by intracellular calcium concentration. The striatal slice preparation maintains a portion of the circuitry of the intact striatum including interneurons, nerve terminals from cortical and nigral neuronal inputs, and medium spiny neurons, which account for the majority (95%) of neurons. Depolarization of the cell membrane by increasing external potassium (K+) concentration is a well-established method of stimulating striatal slices, particularly to trigger release of neurotransmitters such as glutamate from the nerve terminals. Under these conditions, both voltage gated calcium channels and NMDA receptors are expected to open, allowing an influx of calcium into the cells. The increase in intracellular calcium can both activate PDE1 in the medium spiny neurons and activate nitric oxide synthase (NOS) in the interneurons via calcium-calmodulin binding. […]

[9] = biological target: Compound 2 binding to PDE1 in mouse cortex; assay: EGTA titration of Compound 2 binding (calcium dependency)
Protocol: FIG. 4 illustrates Ca^2+-dependent binding of Compound 2, as defined in Example 1, to mouse cortex. Binding of the radioligand is prevented in the presence of EGTA, a specific chelator of calcium
In a further study, binding of Compound 2 (1.5 nM) to mouse cortex was titrated with different concentration of the calcium chelator EGTA to determine the calcium dependency of the ligand binding. […] Levels of binding activity remaining in the presence of excess (200 uM) EGTA was approximately 5% relative to the binding levels in the absence of EGTA.

PDE1 in striatal slices [10] = assay: Striatal slice cGMP levels with ionomycin; format: cell-based; conditions: ionomycin 10 μM alone, in Krebs buffer
Protocol: (§2) FIG. 2 illustrates that increased Ca2+ is sufficient to unmask the active site of PDE1 and allow PDE1 inhibitor binding to the active site therefore increasing cGMP. Increased intracellular calcium is sufficient to increase cGMP levels in the presence of PDE1 inhibitor.
(§3) The calcium ionophore ionomycin was used to control intracellular calcium concentrations in the absence of depolarization. Ionomycin (10 μM, in Krebs buffer) increased intracellular calcium, as confirmed by increased calcium-sensitive phosphorylation of Ca2+/calmodulin-dependent protein kinase II (CaMKII), as shown in FIG. 2A. […] Elimination of extracellular calcium by replacing the calcium chloride in the Krebs solution with 3 mM EGTA prevented the elevation in cGMP seen with PDE1 inhibition and ionomycin.

[11] = tested on: Ca2+/calmodulin-dependent protein kinase II (CaMKII); assay: CaMKII phosphorylation (Western blotting); format: cell-based; conditions: ionomycin 10 μM, in Krebs buffer
Protocol: as §2, §3

Sequence of PDE2A (O00408 whole entry, species assumed): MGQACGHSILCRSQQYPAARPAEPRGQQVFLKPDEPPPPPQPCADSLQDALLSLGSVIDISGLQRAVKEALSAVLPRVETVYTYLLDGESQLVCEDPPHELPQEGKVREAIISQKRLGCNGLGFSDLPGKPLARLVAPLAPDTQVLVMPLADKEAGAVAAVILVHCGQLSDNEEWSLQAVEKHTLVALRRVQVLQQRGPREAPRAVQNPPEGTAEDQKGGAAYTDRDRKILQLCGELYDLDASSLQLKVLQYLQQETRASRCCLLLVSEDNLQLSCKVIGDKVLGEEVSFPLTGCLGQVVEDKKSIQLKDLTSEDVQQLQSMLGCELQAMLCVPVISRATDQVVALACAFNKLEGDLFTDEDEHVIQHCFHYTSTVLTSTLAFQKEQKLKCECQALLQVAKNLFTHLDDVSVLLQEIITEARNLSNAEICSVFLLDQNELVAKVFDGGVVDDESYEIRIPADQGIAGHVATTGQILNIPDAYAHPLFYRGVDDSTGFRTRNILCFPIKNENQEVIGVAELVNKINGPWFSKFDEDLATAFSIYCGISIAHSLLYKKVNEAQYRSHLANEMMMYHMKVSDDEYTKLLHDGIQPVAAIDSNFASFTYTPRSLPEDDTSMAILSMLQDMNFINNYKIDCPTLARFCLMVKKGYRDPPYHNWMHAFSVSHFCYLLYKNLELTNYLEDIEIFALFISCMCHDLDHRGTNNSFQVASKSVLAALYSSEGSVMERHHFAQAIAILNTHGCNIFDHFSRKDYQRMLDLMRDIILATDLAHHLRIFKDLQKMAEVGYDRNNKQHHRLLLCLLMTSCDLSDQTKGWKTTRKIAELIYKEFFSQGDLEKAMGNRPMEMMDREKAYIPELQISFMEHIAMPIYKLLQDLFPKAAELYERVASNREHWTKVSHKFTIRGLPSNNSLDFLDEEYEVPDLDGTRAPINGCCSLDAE
Sequence of PDE1C (Q14123 whole entry, species assumed): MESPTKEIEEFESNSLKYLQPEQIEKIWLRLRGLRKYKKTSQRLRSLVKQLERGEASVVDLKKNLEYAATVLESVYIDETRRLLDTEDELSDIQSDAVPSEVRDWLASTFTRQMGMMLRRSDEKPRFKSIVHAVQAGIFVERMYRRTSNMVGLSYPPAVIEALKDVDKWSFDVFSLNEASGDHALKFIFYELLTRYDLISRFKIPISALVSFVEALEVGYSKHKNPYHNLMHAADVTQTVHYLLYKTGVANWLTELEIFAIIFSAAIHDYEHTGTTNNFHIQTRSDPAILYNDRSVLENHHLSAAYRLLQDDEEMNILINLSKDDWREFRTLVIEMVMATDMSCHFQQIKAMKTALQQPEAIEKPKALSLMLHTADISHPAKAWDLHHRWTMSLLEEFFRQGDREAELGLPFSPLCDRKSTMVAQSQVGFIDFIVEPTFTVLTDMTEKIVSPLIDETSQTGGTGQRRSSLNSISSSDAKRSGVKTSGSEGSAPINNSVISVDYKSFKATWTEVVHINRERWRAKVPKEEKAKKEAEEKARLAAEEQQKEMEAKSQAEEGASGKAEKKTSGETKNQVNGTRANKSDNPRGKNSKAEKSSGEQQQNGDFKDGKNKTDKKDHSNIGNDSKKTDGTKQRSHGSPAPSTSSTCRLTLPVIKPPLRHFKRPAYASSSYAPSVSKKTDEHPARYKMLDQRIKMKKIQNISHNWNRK
Sequence of PDE4A (P27815 whole entry, species assumed): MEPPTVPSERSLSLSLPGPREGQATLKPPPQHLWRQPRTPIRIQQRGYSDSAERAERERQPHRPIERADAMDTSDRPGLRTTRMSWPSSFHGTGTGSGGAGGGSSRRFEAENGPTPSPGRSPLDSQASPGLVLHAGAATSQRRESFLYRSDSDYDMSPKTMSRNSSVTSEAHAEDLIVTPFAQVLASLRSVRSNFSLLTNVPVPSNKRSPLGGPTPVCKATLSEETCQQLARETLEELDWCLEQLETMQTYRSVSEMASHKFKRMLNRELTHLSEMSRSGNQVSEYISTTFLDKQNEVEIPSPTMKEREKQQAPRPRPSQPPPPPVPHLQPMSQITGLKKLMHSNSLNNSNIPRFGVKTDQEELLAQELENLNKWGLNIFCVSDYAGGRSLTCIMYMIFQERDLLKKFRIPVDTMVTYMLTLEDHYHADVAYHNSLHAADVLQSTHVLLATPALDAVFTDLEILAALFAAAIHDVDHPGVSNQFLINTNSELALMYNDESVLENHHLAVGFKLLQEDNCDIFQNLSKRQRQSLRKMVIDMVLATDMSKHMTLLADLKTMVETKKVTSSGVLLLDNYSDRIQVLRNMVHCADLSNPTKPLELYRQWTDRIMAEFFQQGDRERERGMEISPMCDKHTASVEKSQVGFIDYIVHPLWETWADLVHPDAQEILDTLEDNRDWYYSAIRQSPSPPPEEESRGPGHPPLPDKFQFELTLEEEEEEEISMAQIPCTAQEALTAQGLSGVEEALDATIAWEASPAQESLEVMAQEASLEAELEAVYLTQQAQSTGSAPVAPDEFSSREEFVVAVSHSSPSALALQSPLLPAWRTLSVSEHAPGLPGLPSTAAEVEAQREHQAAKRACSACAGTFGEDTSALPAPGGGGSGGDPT
Sequence of PDE8A (O60658 whole entry, species assumed): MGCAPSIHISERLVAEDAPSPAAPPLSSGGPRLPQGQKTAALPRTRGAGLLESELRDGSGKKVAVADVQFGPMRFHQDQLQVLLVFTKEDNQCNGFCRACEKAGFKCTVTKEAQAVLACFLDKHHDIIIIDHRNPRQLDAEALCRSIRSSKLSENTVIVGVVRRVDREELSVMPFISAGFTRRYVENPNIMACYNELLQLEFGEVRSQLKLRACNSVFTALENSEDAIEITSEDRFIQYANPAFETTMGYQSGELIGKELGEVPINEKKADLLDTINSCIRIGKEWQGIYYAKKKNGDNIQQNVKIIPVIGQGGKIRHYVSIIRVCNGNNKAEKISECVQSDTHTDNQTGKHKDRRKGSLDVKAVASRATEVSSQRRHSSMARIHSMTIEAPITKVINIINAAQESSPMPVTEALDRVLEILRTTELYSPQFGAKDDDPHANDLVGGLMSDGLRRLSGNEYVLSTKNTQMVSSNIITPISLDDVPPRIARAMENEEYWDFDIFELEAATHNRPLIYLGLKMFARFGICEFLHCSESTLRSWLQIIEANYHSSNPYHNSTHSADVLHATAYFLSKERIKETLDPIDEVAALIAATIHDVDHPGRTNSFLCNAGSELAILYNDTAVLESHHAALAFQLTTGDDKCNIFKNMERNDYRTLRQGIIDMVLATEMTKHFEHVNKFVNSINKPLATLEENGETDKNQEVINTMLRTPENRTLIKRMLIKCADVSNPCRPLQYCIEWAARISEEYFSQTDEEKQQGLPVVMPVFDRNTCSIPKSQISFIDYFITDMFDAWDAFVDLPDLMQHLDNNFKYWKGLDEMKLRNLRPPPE
Sequence of PDE11A (Q9HCR9 whole entry, species assumed): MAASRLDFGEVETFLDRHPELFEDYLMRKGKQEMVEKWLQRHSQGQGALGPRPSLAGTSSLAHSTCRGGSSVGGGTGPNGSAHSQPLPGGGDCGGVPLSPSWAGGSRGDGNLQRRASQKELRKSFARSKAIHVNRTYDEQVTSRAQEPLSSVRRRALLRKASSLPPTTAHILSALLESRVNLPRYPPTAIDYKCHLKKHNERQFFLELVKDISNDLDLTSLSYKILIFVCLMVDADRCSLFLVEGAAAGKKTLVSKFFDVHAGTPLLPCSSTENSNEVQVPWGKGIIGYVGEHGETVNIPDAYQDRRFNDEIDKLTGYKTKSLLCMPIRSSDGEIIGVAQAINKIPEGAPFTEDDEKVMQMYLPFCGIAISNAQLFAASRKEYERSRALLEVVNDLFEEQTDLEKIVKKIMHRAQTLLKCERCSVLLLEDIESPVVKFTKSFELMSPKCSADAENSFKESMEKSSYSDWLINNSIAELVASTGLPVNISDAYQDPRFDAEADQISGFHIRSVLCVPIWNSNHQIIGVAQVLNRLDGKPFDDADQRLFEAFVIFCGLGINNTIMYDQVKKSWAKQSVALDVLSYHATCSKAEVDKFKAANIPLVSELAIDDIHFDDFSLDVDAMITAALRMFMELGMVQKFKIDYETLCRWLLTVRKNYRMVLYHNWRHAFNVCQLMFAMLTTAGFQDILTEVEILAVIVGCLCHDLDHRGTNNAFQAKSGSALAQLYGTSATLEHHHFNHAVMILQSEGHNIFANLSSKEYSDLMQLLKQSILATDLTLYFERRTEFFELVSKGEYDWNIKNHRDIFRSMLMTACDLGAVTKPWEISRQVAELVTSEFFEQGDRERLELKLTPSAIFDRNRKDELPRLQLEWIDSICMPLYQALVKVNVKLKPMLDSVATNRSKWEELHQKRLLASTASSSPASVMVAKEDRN
Sequence of PDE7B (Q9NP56 whole entry, species assumed): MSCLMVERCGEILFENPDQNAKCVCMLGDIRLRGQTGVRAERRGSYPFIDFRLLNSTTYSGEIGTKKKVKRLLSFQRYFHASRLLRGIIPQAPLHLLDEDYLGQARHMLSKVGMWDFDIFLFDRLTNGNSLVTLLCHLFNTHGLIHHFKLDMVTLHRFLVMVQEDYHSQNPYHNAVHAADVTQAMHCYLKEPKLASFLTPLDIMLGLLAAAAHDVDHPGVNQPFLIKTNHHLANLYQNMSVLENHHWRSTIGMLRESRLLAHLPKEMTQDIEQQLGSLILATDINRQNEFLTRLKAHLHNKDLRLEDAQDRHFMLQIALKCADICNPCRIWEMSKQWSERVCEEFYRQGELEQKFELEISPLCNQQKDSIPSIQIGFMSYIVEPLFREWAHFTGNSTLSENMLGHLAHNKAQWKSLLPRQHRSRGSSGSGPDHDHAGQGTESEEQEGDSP

## CN1C(=O)c2c(nn(Cc3ccc(C4CCCN4C)cc3)c2Nc2ccc(F)cc2)N2CC(C)(C)N=C12 (stereo not shown) [Compound 1, 3-((4-fluorophenyl)amino)-5,7,7-trimethyl-2-(4-(1-methylpyrrolidin-2-yl)benzyl)-7,8-dihydro-2H-imidazo[1,2-a]pyrazolo[4,3-e]pyrimidin-4(5H)-one]
[1]
  Ratio PDEx/PDE1A: 1,561
[2]
  Ki: 2.4 µM
PDE1 (Bovine Brain) [3]
  Ratio PDEx/PDE1A: 0.67
PDE1 (Bovine Brain) [4]
  Ki: 0.001 µM
PDE10A
  Ki: 42.9 µM
  Ratio PDEx/PDE1A: 27,687
PDE11A
  Ki: 40.7 µM
  Ratio PDEx/PDE1A: 26,289
PDE1A
  Ki: 0.0015 µM
  Ratio PDEx/PDE1A: 1
PDE1B
  Ki: 0.0092 µM
  Ratio PDEx/PDE1A: 5.9
PDE1C
  Ki: 0.0013 µM
  Ratio PDEx/PDE1A: 0.85
PDE2A
  Ki: > 100 µM
  Ratio PDEx/PDE1A: >64,589
PDE3B
  Ki: 78.9 µM
  Ratio PDEx/PDE1A: 50,983
PDE4A
  Ki: 6.6 µM
  Ratio PDEx/PDE1A: 4,263
PDE5
  Ki: 48.9 µM
  Ratio PDEx/PDE1A: 31,595
PDE6 [5]
  Ratio PDEx/PDE1A: 9,122
PDE6 [6]
  Ki: 14.1 µM
PDE7B
  Ki: 13.1 µM
  Ratio PDEx/PDE1A: 8,448
PDE8A
  Ki: > 100 µM
  Ratio PDEx/PDE1A: >64,589
PDE9A
  Ki: > 100 µM
  Ratio PDEx/PDE1A: >64,589
[7]
  selectivity toward all other PDE families: > 1000 fold

## CN1C(=O)c2c(nn(Cc3ccc(-c4cccc(F)n4)cc3)c2Nc2ccccc2)N2C1=N[C@@H]1CCC[C@@H]12 [ITI-214]
PDE1 in striatal slices [8]
  striatal cGMP levels: increased cyclic nucleotide levels

## O=C(O)CN(CCOCCOCCN(CC(=O)O)CC(=O)O)CC(=O)O [EGTA]
[9]; Compound 2 1.5 nM, mouse cortex, read-out: IC50 for decrease of specific binding of Compound 2
  IC50: 7.7 µM
[9]; FIG. 4, mouse cortex
  binding of the radioligand in the presence of EGTA: prevented
[9]; excess (200 uM) EGTA, mouse cortex
  binding activity remaining relative to absence of EGTA: approximately 5%

## C[C@H](CCC(=O)O)C[C@H](C)C[C@H](C)C(=O)/C=C(\O)[C@H](C)C[C@H](C)C/C=C/[C@@H](C)[C@@H](O)[C@@H](C)[C@@H](O)C[C@@H]1CC[C@@](C)([C@H]2CC[C@@](C)([C@@H](C)O)O2)O1 [Ionomycin, ionomycin]
PDE1 in striatal slices [10]
  striatal cGMP levels: did not lead to elevated cGMP levels
[11]
  calcium-sensitive phosphorylation of CaMKII: increased
